From patent US20230183753A1, “Methods of in Vitro Cell Delivery” (Intellia Therapeutics, Inc., priority 2020, published 2023) come the findings set out here.

Common to all, as to type: cell-based, human
Data set [1] relates to B2M. Briefly: B2M editing by NGS in T cells with different ionizable lipid formulations (Lipid A, Lipid B), Example 7. To be noted: LNPs formulated with the named ionizable lipid. How it is done: LNPs formulated with different ionizable lipids were tested for T cell delivery efficacy. T cells were prepared, thawed and activated as in Example 5. Forty-eight hours post activation, T cells were treated with LNPs delivering Cas9 mRNA and gRNA G000529 (SEQ ID NO: 701) targeting B2M. LNPs were generally prepared as Example 1. Lipid A formulations were prepared at a ratio of 50/9/38/3 ionizable Lipid A, cholesterol, DSPC, and PEG2k-DMG. Lipid B compositions were formulated at a ratio of 50/10/38.5/1.5 ionizable lipid nonyl 8-((8,8-bis(octyloxy)octyl)(2-hydroxyethyl)amino)octanoate, cholesterol, DSPC, and PEG2k-DMG.

Data set [2] deals with TRAC. As to the kind of experiment: Lipid screen in activated B cells: percent editing by NGS, Example 23.3. To be noted: LNPs formulated with the named ionizable lipid, 5 μg/ml. On the procedure:
A leukopak from a healthy human donor was obtained commercially (Hemacare) and B cells were isolated by CD19 positive selection using the StraightFrom Leukopak CD19 MicroBead kit (Miltenyi, 130-117-021) on a MultiMACS Cell24 Separator Plus instrument. Following MACS isolation, CD19+ B cells were activated in B Cell Media 3 or B Cell Media 7, each supplemented with 100 ng/ml MEGACD40L. […] LNPs were generally prepared as Example 1 using the ionizable and PEG lipids described in Table 68 with the lipid composition expressed as the molar ratio of ionizable lipid/cholesterol/DSPC/PEG, respectively.
Editing was more efficient in B cells cultured in StemSpan compared to IMDM.

Data set [3] has as its system B2M. Briefly: B2M negative B cells after LNPs preincubated with ApoE3 or ApoE4, Example 23.4. To be noted: LNPs formulated with the named ionizable lipid. How it is done:
B cells (Hemacare) were thawed and activated in Stemspan SFEM media with 1 ug/ml CpG ODN 2006 (Invivogen, cat. tlrl-2006-1), 50 ng/ml IL-2 (Peprotech, cat. 200-02), 50 ng/ml IL-10 (Peprotech, cat. 200-10), 10 ng/ml IL-15 (Peprotech, cat. 200-15), 1 ng/ml MegaCD40L (Enzo Life Sciences, cat. ALX-522-110-0000), 1% penicillin-streptomycin and 5% human AB serum. B cells were considered activated in the presence of 1 ng/mL MegaCD40L (Enzo Life Sciences, cat. ALX-522-110-0000) and 1 ug/mL CpG ODN 2006 (Invivogen, cat. tlrl-2006-1). Two days following activation, B cells were treated with LNPs delivering Cas9 mRNA and gRNA G000529 (SEQ ID NO: 701) targeting B2M. LNPs were generally prepared as Example 1 using the ionizable lipids described in Table 69 with the lipid composition of 50/10/38.5/1.5, expressed as the molar ratio of ionizable lipid/cholesterol/DSPC/PEG, respectively. […] Five days post LNP treatment, cells were phenotyped by flow cytometry. Briefly, B cells were incubated with antibodies targeting B2M (Biolegend, cat. 395806), CD19 (Biolegend, cat. 302205), CD20 (Biolegend, cat. 302322), CD86 (Biolegend cat. 305420). Cells were subsequently washed in DAPI (Thermo Fisher, cat. D1306) diluted 1:3703 in PBS, processed on a Cytoflex instrument (Beckman Coulter) and analyzed using the FlowJo software package. B cells were gated on size, singlets, and live cells.

Data set [4] relates to B2M locus. As to the kind of experiment: Insertion into B cells with LNP and AAV6: GFP positive and B2M negative cells, Example 26. To be noted: Day 7 post-treatment; LNP with the named ionizable lipid 5 μg/ml plus AAV6. On the procedure: B cells were isolated as Example 23.3. and were activated in B cell media 9 as described in Table 64, supplemented with 1 ng/ml MEGACD40L. Two days following activation, B cells were treated with LNPs delivering mRNA encoding Cas9 (SEQ ID NO. 6) and gRNA G000529 (SEQ ID NO: 701) targeting the B2M locus as well as with AAV6 for GFP template insertion into the B2M locus (SEQ ID NO. 722) driven by the EF1α promoter. LNPs were generally prepared as described in Example 1 using Lipid A and Lipid D as the ionizable lipids with the lipid composition of 50/10/38.5/1.5, expressed as the molar ratio of ionizable lipid/cholesterol/DSPC/PEG, respectively.
B cells were phenotyped for GFP expression on Day 7. For B cell phenotyping by flow cytometry, B cells were stained with antibodies targeting CD19 (Biolegend, 302218), CD20 (Biolegend, 302322), CD86 (Biolegend, 374216) and B2M (Biolegend, 316312). Cells were subsequently stained with a viability dye (Biolegend, 422801), washed, and processed on a Cytoflex instrument (Beckman Coulter). Results were analyzed using the FlowJo software package. B cells were gated based on size and viability, followed by GFP expression on the total live population.

Data set [5] has as its system B2M. As to the kind of experiment: Percent editing by NGS in monocytes and macrophages with Lipid A or Lipid D LNPs, Example 34. To be noted: LNP formulations with the named lipid; Day 0 and Day 5 post thaw. On the procedure: CD14+ cells were isolated as in Example 31 and frozen for future use. CD14+ cells were thawed and cultured in triplicate at 100,000 cells/well in OpTmizer base media as described in Table 2 with 10 ng/mL GM-CSF (Stemcell, 78140.1) on non-tissue culture plates (Falcon, 351172) for ease of detachment. Cells were treated with LNPs delivering mRNA encoding Cas9 (SEQ ID NO. 6) and gRNA G000529 (SEQ ID NO. 701) targeting B2M. For monocytes, LNP addition occurred on the same day as plating on tissue culture plates. […] LNPs were generally prepared as Example 1 using the ionizable lipids indicated in Tables 84 and 85 with the lipid composition of 50/10/38.5/1.5, expressed as the molar ratio of ionizable lipid/cholesterol/DSPC/PEG, respectively. […] The pre-incubated LNPs were added to cells in 1:1 v/v ratio, yielding a final total RNA cargo dose of 2.5 ug/mL or 5 ug/mL.
Briefly, cells were incubated with antibodies targeting CD68, CD11b and HLA-ABC (Biolegend, 311432) as generally as described in Example 31. HLA-ABC targeting antibody was used in place of B2M. Cells were subsequently washed, processed on a Cytoflex instrument (Beckman Coulter) and analyzed using the FlowJo software package. Cells were gated on size, CD68+, CD11b+ followed by HLA-ABC− population. NGS editing data is shown is Table 85. […] Editing was also observed when cells were cultured in RPMI or XVIVO-15 media.

The test system of data set [6] is B2M, TRAC, TRBC1/2, CIITA. Briefly: NGS editing profile of T cells with BC22n or Cas9 mRNA, single or four guides, LNP titration, Example 16A.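 Note: activated T cells exposed to LNPs 72 h after activation, kept at 37 °C, harvested on day 10 post activation, editing measured by NGS.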 To be noted: four guides simultaneously, with trans UGI.
Description: Cells were expanded in T cell basal media for 72 hours prior to LNP transfection.
LNPs were mixed to fixed total mRNA weight ratios of 6:3:2 for editor mRNA, guide RNA, and UGI mRNA respectively as described in Table 12. […] LNP mixtures were incubated for 5 minutes at 37° C. in T cell basal media substituting 6% cynomolgus monkey serum (Bioreclamation IVT, Cat. CYN220760) for fetal bovine serum.
T cells were incubated at 37° C. with 5% CO2 for the duration of the experiment.
In total, T cells were exposed to 6 different LNPs simultaneously (editor mRNA, UGI mRNA, 4 guides).
The test system of data set [7] is B2M, CD3, MHC II. Briefly: Flow cytometry of antigen negative T cells (B2M, CD3, MHC II) after BC22n or Cas9 editing, Example 16A. (Flow cytometry measures light scatter and fluorescence of single cells or particles in a stream.)
Excerpt: Cells were subsequently washed, processed on a Cytoflex instrument (Beckman Coulter) and analyzed using the FlowJo software package. T cells were gated based on size, shape, viability, and antigen expression.
In data set [8] the test system is B2M, TRAC, TRBC, CIITA. As to the kind of experiment: NGS percent editing after LNP delivery of BC22n or Cas9 with single or four guides, Example 16.B.6. As to conditions: 4 guides delivered by LNP. On the procedure:
(§1) LNPs were formulated generally as in Example 1 with a single RNA species cargo. […] Seventy-two hours post activation, T cells were washed and suspended in OpTmizer media with cytokines without human serum. […] A control group including unedited T cells (no LNP) was also included. At 16 hours post-delivery, a subset of cells was used to measure cell viability and another subset of cells was processed for imaging of γH2AX foci. The remaining T cells continued to expand in culture. Media was changed 5 days and 8 days after activation and on the eleventh day post activation, cells were harvested for analysis by NGS, flow cytometry and UnIT. NGS was performed as in Example 1.
(§2) On day 8 post-editing, T cells were phenotyped by flow cytometry to determine B2M, CD3 and HLA II− DR, DP, DQ protein expression. Briefly, T cells were incubated in a cocktail of antibodies targeting B2M-APC/Fire™ 750 (BioLegend® Cat. No. 316314), CD3-BV605 (BioLegend® Cat. No. […]) and HLA II− DR, DP, DQ-PE (BioLegend® Cat. No. 361716). Cells were subsequently washed, processed on a Cytoflex flow cytometer (Beckman Coulter) and analyzed using the FlowJo software package. T cells were gated based on size, shape, viability, and MHC II expression. […]

Data set [9] concerns B2M, CD3, HLA II-DR, DP, DQ. Briefly: Flow cytometry of surface proteins (B2M, CD3, HLA II-DR, DP, DQ) after LNP delivery, Example 16.B.6. To be noted: LNP treatment. On the procedure:
as §1, §2

The test system of data set [10] is interchromosomal translocations. Briefly: UnIT structural variant assay (interchromosomal translocations), Example 16.B.7. As to conditions: multiplex editing with 4 guides by LNP. How it is done:
On day 8 post-editing a subset of T cells from the untreated, LNP-Cas9-4 guides and LNP-BC22n-4 guides samples were collected, spun down and resuspended in 100 μL of PBS. gDNA was isolated from the cells using DNeasy Blood & Tissue Kit (Qiagen Cat. 69504). The UnIT structural variant characterization assay was applied to these gDNA samples. High molecular weight genomic DNA is simultaneously fragmented and sequence-tagged (‘tagmented’) with the Tn5 transposase and an adapter with a partial Illumina P5 sequence and a 12 bp unique molecular identifier (UMI). Two sequential PCRs using a primer to P5 and hemi-nested gene specific primers (GSP) imparting the Illumina the P7 sequence to create two Illumina compatible NGS libraries per sample. Sequencing across both directions of the CRISPR/Cas9 targeted cut site with the two libraries allows the inference and quantification of structural variants in DNA repair outcomes after genome editing.

As for `CCCCC/C=C\C/C=C\CCCCCCCC(=O)OCC(COC(=O)CCC(OCCCCCCCC)OCCCCCCCC)COC(=O)OCCCN(CC)CC` (centres unmarked) [Lipid A, (9Z,12Z)-3-((4,4-bis(octyloxy)butanoyl)oxy)-2-((((3-(diethylamino)propoxy)carbonyl)oxy)methyl)propyl octadeca-9,12-dienoate], the “B2M editing in T cells by NGS, in words” value in data set [1] is listed as “Efficient editing was evident”. Moreover, in data set [2], the “editing in activated B cells by NGS, in words” value is recorded as “Efficient editing was evident”. Further, in data set [3], the “B2M negative B cells, in words” value is on record as “increased percentage of B2M negative cells”. For the same molecule, in data set [4], the “percentage of B cells expressing GFP” value was found to be 29.5%. Further, the “editing in monocytes and macrophages, in words” value in data set [5] is given as “showed effective editing”.
Regarding `CCCCCCCCCOC(=O)CCCCCCCN(CCO)CCCCCCC(OCCCCCCCC)OCCCCCCCC` [Lipid D], the “B2M negative B cells, in words” value in [3] was “increased percentage of B2M negative cells”. Moreover, the “percentage of B cells expressing GFP” value in data set [4] came to 14.5%. The “editing in monocytes and macrophages, in words” value in [5] is reported as “showed effective editing”.
On to “BC22n: mRNA encoding editor: H. sapiens APOBEC3A fused to S. pyogenes-D10A Cas9 nickase by an XTEN linker, without UGI”, for which the “maximum total editing for each locus compared with Cas9, in words” value in data set [6] is listed as “higher percentages of maximum total editing for each locus”. Besides, the “% of cells lacking all three antigens (triple knockout: B2M, CD3, MHC II)” value in data set [7] (four guides, with trans UGI, highest total RNA dose of 550 ng) worked out at 84.2%. In addition, the “R square, C to T conversions compared to antigen knockout” value in [7] (samples treated with one guide only) amounted to 0.93. In data set [8], the “percent editing at each locus compared with Cas9, in words” value is given as “percent editing is higher at each locus”. Further, the “triple knockout cells compared with Cas9, in words” value in data set [9] is on record as “greater percentage of triple knockout cells”. Further, in [10], the “interchromosomal translocations / structural variation (UnIT), in words” value is given as “reduced to background levels”.
